Data: PubChem BioAssay (NCI)
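Dose response: 5 concentrations. Exposure: 48 h. Format: 96-well plates. Endpoint: linear interpolation; highest concentration if not reached. GI50 is the concentration that inhibits growth by half. TGI: total growth inhibition.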

Experiments:
Experiment in all cases: NCI-60 cell line screen, 48 h
[1] = tested on: SK-MEL-28 melanoma
[2] = tested on: SF-539 CNS
[3] = tested on: SNB-19 CNS
[4] = tested on: OVCAR-3 ovarian
[5] = tested on: TK-10 renal
[6] = tested on: CAKI-1 renal
[7] = tested on: OVCAR-5 ovarian
[8] = tested on: HCC-2998 colon
[9] = tested on: CCRF-CEM leukemia
[10] = tested on: MALME-3M melanoma
[11] = tested on: MCF7 breast
[12] = tested on: MDA-MB-231 breast
[13] = tested on: A549 NSCLC
[14] = tested on: SK-OV-3 ovarian
[15] = tested on: UACC-62 melanoma
[16] = tested on: SK-MEL-2 melanoma
[17] = tested on: NCI-H522 lung
[18] = tested on: SNB-75 CNS
[19] = tested on: RXF 393 renal
[20] = tested on: HCT-15 colon
[21] = tested on: HCT-116 colon
[22] = tested on: NCI-H226 lung
[23] = tested on: A498 renal
[24] = tested on: OVCAR-8 ovarian
[25] = tested on: DU-145 prostate
[26] = tested on: U251 CNS
[27] = tested on: BT-549 breast
[28] = tested on: KM12 colon
[29] = tested on: COLO 205 colon
[30] = tested on: SN12C renal
[31] = tested on: IGROV1 ovarian
[32] = tested on: HS 578T breast
[33] = tested on: UO-31 renal
[34] = tested on: K-562 leukemia
[35] = tested on: SK-MEL-5 melanoma
[36] = tested on: SR leukemia
[37] = tested on: SF-268 CNS
[38] = tested on: LOX IMVI melanoma
[39] = tested on: SW-620 colon
[40] = tested on: MOLT-4 leukemia
[41] = tested on: EKVX NSCLC
[42] = tested on: HOP-62 NSCLC
[43] = tested on: NCI-H460 lung
[44] = tested on: RPMI-8226 leukemia
[45] = tested on: HL-60(TB) leukemia
[46] = tested on: NCI/ADR-RES ovarian
[47] = tested on: MDA-MB-435
[48] = tested on: M14 melanoma
[49] = tested on: NCI-H23 lung
[50] = tested on: PC-3 prostate
[51] = tested on: UACC-257 melanoma
[52] = tested on: HT29 colon
[53] = tested on: T-47D breast
[54] = tested on: ACHN renal
[55] = tested on: 786-0 renal
[56] = tested on: SF-295 CNS
[57] = tested on: HOP-92 NSCLC
[58] = tested on: OVCAR-4 ovarian

## C/C(=N\NC(=O)c1ccncc1)c1ccccc1O
[1]
  GI50: 20.9 µM
  TGI: > 100 µM
[2]
  GI50: 2.78 µM
  TGI: > 100 µM
[3]
  GI50: 8.23 µM
  TGI: > 100 µM
[4]
  GI50: 3.35 µM
  TGI: > 100 µM
[5]
  GI50: 3.03 µM
  TGI: > 100 µM
[6]
  GI50: 0.805 µM
  TGI: 21.4 µM
[7]
  GI50: 4.87 µM
  TGI: > 100 µM
[8]
  GI50: 2.37 µM
  TGI: 68.7 µM
[9]
  GI50: 0.742 µM
  TGI: > 100 µM
[10]
  GI50: 5.39 µM
  TGI: 97.3 µM
[11]
  GI50: 3.72 µM
  TGI: > 100 µM
[12]
  GI50: 5.65 µM
  TGI: > 100 µM
[13]
  GI50: 3.86 µM
  TGI: > 100 µM
[14]
  GI50: 4.84 µM
  TGI: > 100 µM
[15]
  GI50: 3.04 µM
  TGI: 18.9 µM
[16]
  GI50: > 100 µM
  TGI: > 100 µM
[17]
  GI50: 2.82 µM
  TGI: > 100 µM
[18]
  GI50: > 100 µM
  TGI: > 100 µM
[19]
  GI50: 8.15 µM
  TGI: > 100 µM
[20]
  GI50: 0.828 µM
  TGI: > 100 µM
[21]
  GI50: 2.32 µM
  TGI: > 100 µM
[22]
  GI50: 6.27 µM
  TGI: > 100 µM
[23]
  GI50: 29 µM
  TGI: > 100 µM
[24]
  GI50: 3.05 µM
  TGI: > 100 µM
[25]
  GI50: 4.85 µM
  TGI: > 100 µM
[26]
  GI50: 3.31 µM
  TGI: > 100 µM
[27]
  GI50: 3.79 µM
  TGI: 84.7 µM
[28]
  GI50: 2.95 µM
  TGI: > 100 µM
[29]
  GI50: 2.62 µM
  TGI: > 100 µM
[30]
  GI50: 4.79 µM
  TGI: > 100 µM
[31]
  GI50: 1.8 µM
  TGI: > 100 µM
[32]
  GI50: 26.7 µM
  TGI: > 100 µM
[33]
  GI50: 0.973 µM
  TGI: 28.9 µM
[34]
  GI50: 5.78 µM
  TGI: > 100 µM
[35]
  GI50: 3.6 µM
  TGI: 32.2 µM
[36]
  GI50: 1.8 µM
  TGI: > 100 µM
[37]
  GI50: 3.77 µM
  TGI: > 100 µM
[38]
  GI50: 1.46 µM
  TGI: > 100 µM
[39]
  GI50: 5.27 µM
  TGI: > 100 µM
[40]
  GI50: 2.35 µM
  TGI: > 100 µM
[41]
  GI50: 2.34 µM
  TGI: > 100 µM
[42]
  GI50: 3.82 µM
  TGI: > 100 µM
[43]
  GI50: 0.683 µM
  TGI: > 100 µM
[44]
  GI50: 4.68 µM
  TGI: > 100 µM
[45]
  GI50: 2.96 µM
  TGI: 11.6 µM
[46]
  GI50: 2.23 µM
  TGI: > 100 µM
[47]
  GI50: 6.37 µM
  TGI: > 100 µM
[48]
  GI50: 4.95 µM
  TGI: 89.1 µM
[49]
  GI50: 4.34 µM
  TGI: > 100 µM
[50]
  GI50: 8.66 µM
  TGI: > 100 µM
[51]
  GI50: 4.14 µM
  TGI: > 100 µM
[52]
  GI50: 1.6 µM
  TGI: > 100 µM
[53]
  GI50: 2.24 µM
  TGI: > 100 µM
[54]
  GI50: 1.64 µM
  TGI: > 100 µM
[55]
  GI50: 2.94 µM
  TGI: 21.3 µM
[56]
  GI50: 1.38 µM
  TGI: > 100 µM
[57]
  GI50: 2.27 µM
  TGI: > 100 µM
[58]
  GI50: 1.94 µM
  TGI: > 100 µM

## O=C1COc2c(CCNCCN(C(=O)CCNCCc3ccc(Cl)c(Cl)c3)C3CCCCC3)ccc(O)c2N1
[1]
  GI50: 14.8 µM
  TGI: 29.3 µM
[2]
  GI50: 15.1 µM
  TGI: 29.7 µM
[3]
  GI50: 15 µM
  TGI: 31 µM
[4]
  GI50: 16.8 µM
  TGI: 32.1 µM
[5]
  GI50: 14.1 µM
  TGI: 28.8 µM
[6]
  GI50: > 45.9 µM
  TGI: > 74.9 µM
[7]
  GI50: 13.6 µM
  TGI: 28.4 µM
[8]
  GI50: 18.7 µM
  TGI: 35.1 µM
[9]
  GI50: 11 µM
  TGI: 27.6 µM
[10]
  GI50: 21.9 µM
  TGI: 39.6 µM
[11]
  GI50: 11.9 µM
  TGI: 27.8 µM
[12]
  GI50: 10.5 µM
  TGI: 25.6 µM
[13]
  GI50: 21.8 µM
  TGI: 44.8 µM
[14]
  GI50: 16 µM
  TGI: 30.8 µM
[15]
  GI50: 15.5 µM
  TGI: 30.4 µM
[16]
  GI50: 17.2 µM
  TGI: 34.9 µM
[17]
  GI50: 15.2 µM
  TGI: 32.3 µM
[18]
  GI50: 3.65 µM
  TGI: 19.4 µM
[19]
  GI50: 14.8 µM
  TGI: 30.7 µM
[20]
  GI50: 15.7 µM
  TGI: 31.2 µM
[21]
  GI50: 14.6 µM
  TGI: 28.4 µM
[22]
  GI50: 17.7 µM
  TGI: 35.9 µM
[23]
  GI50: 13.9 µM
  TGI: 28.4 µM
[24]
  GI50: 17.2 µM
  TGI: 34 µM
[25]
  GI50: 17.7 µM
  TGI: 32 µM
[26]
  GI50: 16.3 µM
  TGI: 32 µM
[27]
  GI50: 14.3 µM
  TGI: 29 µM
[28]
  GI50: 19 µM
  TGI: 35.5 µM
[29]
  GI50: 14.8 µM
  TGI: 32.3 µM
[30]
  GI50: 14.7 µM
  TGI: 30.3 µM
[31]
  GI50: 15 µM
  TGI: 30.1 µM
[32]
  GI50: 15.4 µM
  TGI: 34.9 µM
[33]
  GI50: 16 µM
  TGI: 31 µM
[34]
  GI50: 16.2 µM
  TGI: 34.1 µM
[35]
  GI50: 15.6 µM
  TGI: 29.4 µM
[36]
  GI50: 12.2 µM
  TGI: 33.7 µM
[37]
  GI50: 14.7 µM
  TGI: 30.3 µM
[38]
  GI50: 15.6 µM
  TGI: 30.2 µM
[39]
  GI50: 16 µM
  TGI: 31 µM
[40]
  GI50: 15.8 µM
  TGI: 34.5 µM
[41]
  GI50: 15.4 µM
  TGI: 30 µM
[42]
  GI50: 15.3 µM
  TGI: 32.7 µM
[43]
  GI50: 16.5 µM
  TGI: 31.1 µM
[44]
  GI50: 14.5 µM
  TGI: 33.8 µM
[45]
  GI50: 14.2 µM
  TGI: 32.1 µM
[46]
  GI50: > 100 µM
  TGI: > 100 µM
[47]
  GI50: 14.9 µM
  TGI: 28.5 µM
[48]
  GI50: 16.6 µM
  TGI: 31.8 µM
[49]
  GI50: 18.1 µM
  TGI: 33.9 µM
[50]
  GI50: 16 µM
  TGI: 30.3 µM
[51]
  GI50: 16.9 µM
  TGI: 33 µM
[52]
  GI50: 16.7 µM
  TGI: 33.8 µM
[53]
  GI50: 17.3 µM
  TGI: 40.1 µM
[54]
  GI50: 15.2 µM
  TGI: 29.1 µM
[55]
  GI50: 17.2 µM
  TGI: 32.9 µM
[56]
  GI50: 15.7 µM
  TGI: 30.8 µM
[57]
  GI50: < 0.0353 µM
  TGI: 17.5 µM
[58]
  GI50: 15 µM
  TGI: 28.9 µM
